Reference: patent publication US6958141B2, “Rhenium and technetium complexes containing a hypoxia-localizing moiety” (Bracco International B.V., priority 1991, dated 2005)

Columns and labels:
[1] = test system: Bovine brain microvessel endothelial cells; assay: Ability to cross endothelial monolayers (permeability index); format: in vitro ADME; conditions: permeability index from PSe, endothelial monolayer, compared with ^3H-water and ^14C-sucrose, first 10 minutes, 37° C.
Procedure: The model consists of a cultured monolayer of bovine brain endothelial cells, which form tight intercellular junctions. […] The rate of transit is compared with ^3H2O (a highly permeable tracer) and ^14C-sucrose (a non-permeable tracer).
Bovine brain microvessel endothelial cells were isolated using a modification of the Audus-Borchardt method (K. L. Audus et al., Ann. New York Acad. Sci., 1988; 9-18). […]
This system was placed into a 37° C., 5% CO2 incubator which contains an orbiting tissue culture plate shaker for agitation and 10 μL samples, from both inside (donor) and outside (acceptor) compartments, were taken simultaneously from a set of 4 Anocell inserts. These samples were counted first in a Gamma counter then, after 72 hours, in a scintillation counter with dual channel capabilities. The fraction of radioactivity transported from the donor to the acceptor wells at each time point over the first 10 minutes of the study was calculated. The average percent of radioactivity transported was plotted vs. time and the slope was estimated by linear regression analysis. […] The permeability index (Pi) is calculated using the PSe for each agent as follows: [formula]

[2] = test system: hypoxic ischemic border zone; assay: Rabbit focal myocardial ischemia model (LAD occlusion), double-label autoradiography; format: in vivo; conditions: permanent LAD coronary artery ligation, intravenous tracer, heart sections, listed as 99mTc complex of the ligand described in Example 1
Procedure: A model of focal myocardial ischemia in the rabbit was developed, using permanent ligation of the left anterior descending (LAD) coronary artery. The model consisted of two studies. In the first, relative regional myocardial blood flow (MBF) and relative regional myocardial rate of glucose metabolism (MMRgl) were determined by autoradiography using a double-label study with the flow tracer ^99mTcCl(CDO)3MeB (R. K. Narra et al., J. Nucl. Med., 1989; 30:1830-1837) and ^14C-deoxy-glucose for MMRgl (L. Sokoloff et al., J. Neurochem., 1977, 28, 897-916). ^14C-deoxyglucose and the ^99mTc-hypoxia-localizing tracer were administered to a second group of rabbits with LAD coronary artery occlusion.
After the surgical preparation and 20 minutes of LAD occlusion, ^14C-deoxyglucose (130-150 μCi) was injected as an intravenous bolus, and timed arterial blood samples were obtained. Twenty-five minutes later, ^99mTcCl(CDO)3MeB (10-12 mCi) was administered intravenously. Five minutes later, the rabbits were sacrificed by intravenous injection of Nembutal and potassium chloride. The heart was excised, frozen in liquid Freon-22, and 20 μm coronal sections obtained with a Microtome. Autoradiographs were obtained on all sections. For the first exposure (˜14 hours duration) of Kodak XAR film, extra heavy duty aluminum foil was interposed between the tissue and film to block completely the radiation emanating from ^14C to obtain the MBF information derived from ^99mTcCl(CDO)3MeB alone. After three days (to allow for decay of ^99mTc); a second autoradiograph was obtained without foil. The second exposure lasted 6-8 days, and,provided an image of the regional distribution of ^14C-deoxyglucose.
In a separate experiment using the rabbit LAD occlusion model and the double-label autoradiography procedures described above, the performance of the ^99mTc complex of the ligand described in Example 1 was compared to that of ^14C-misonidazole.

Mitochondria = assay: Studies in isolated mitochondria; design: species or system male Sprague Dawley rats; conditions: 37° C. for 60 minutes, means ±S.E.M.
Procedure: Mitochondria were prepared from hearts of male Sprague Dawley rats (200 g) using the isolation procedure of Fuller et al., (E. O. Fuller, D. I. Golderg, J. W. Starnes, M. Sacks, and M. J. Delavoria-Papadopoulos, Mol. Cell. Cardiol., 17:71, 1985). The heart was excised from anesthetized rats and trimmed free of the atria and great vessels. The ventricles were minced in ice-cold isolation medium (0.225 M mannitol, 75 mM sucrose, 1.0 mM EGTA and 10 mM MOPS, pH 7.4), briefly exposed to the proteolytic enzyme preparation, Nagase (Enzyme Development Corp., New York, N.Y.), and homogenized with a polytron. The mitochondria were separated from the remainder of the broken cells using density gradient centrifugation.
Three nitroimidazole compounds were incubated at 37° C. for 60 minutes in isolated mitochodria. Hypoxia and anoxia were induced as outlined in Example 12.
Values are given in percent of total radioactivity within an aliquot and represent means ±S.E.M. Compounds were tested using the same preparation of mitochondria.

[3] = Biodistribution of ^99mTc-complexes in normal (normoxic) Sprague-Dawley rats; format: in vivo; conditions: MEAN n=4
Procedure: Twelve Sprague-Dawley rats were anesthetized with Nembutal (50 mg/kg) and injected with 0.1 mL (20 μCi) of radioactivity via the jugular vein. At 1 minute, 5 minutes and 60 minutes after administration of the radiotracers (n=4 for all time points), the animals were sacrificed by exsanguination, and the target tissues removed, weighed and assayed for radioactivity. The rats were allowed to respire room air throughout the course of the study.

[4] = 1 Min. after jugular vein injection
[5] = 5 Min. after jugular vein injection
[6] = 60 Min. after jugular vein injection

Q: For “[^99mTc]Oxo[[3,3,9,9-tetramethyl-1-(2-nitro-1H-imidazo-1-yl)-4,8-diazaundecane-2,10-dione dioximato]-(3-)-N,N′,N″,N′″]technetium(V) [^99mTc complex from ligand in Ex. 1]”, which Pi [1] is on record?
A: The Pi was 63.2.

Q: What about the “regional myocardial distribution pattern (autoradiography)” value [2] of the same substance?
A: Its value is “high uptake in the hypoxic border zone of the ischemic territory and low uptake in normoxic regions”.

Q: And the “percentage of radioactivity associated with the mitochondria, Hypoxia” value (Mitochondria)?
A: The value was 39.2 ± 1.0% of total radioactivity within an aliquot.

Q: And the “percentage of radioactivity associated with the mitochondria, Normoxia” value (Mitochondria)?
A: The value was 27.8 ± 1.2% of total radioactivity within an aliquot.

Q: What about the Hypoxia/normoxia (Mitochondria; radioactivity associated with mitochondria) of the same substance?
A: Its Hypoxia/normoxia is 1.4 ± 0.1.

Q: And the “Percent ID/g Bladder” value [3, 4]?
A: The value was 0.15 Percent ID/g.

Q: And the “Percent ID/g Blood” value [3, 4]?
A: Its value is 0.47 Percent ID/g.

Q: And the “Percent ID/g Bone” value [3, 4]?
A: The value was 0.37 Percent ID/g.

Q: What about the “Percent ID/g Brain” value [3, 4] of the same substance?
A: Its value is 0.30 Percent ID/g.

Q: And the “Percent ID/g Heart” value [3, 4]?
A: The value was 1.32 Percent ID/g.

Q: What about the “Percent ID/g Kidneys” value [3, 4] of the same substance?
A: Its value is 2.59 Percent ID/g.

Q: And the “Percent ID/g Liver” value [3, 4]?
A: Its value is 2.06 Percent ID/g.

Q: What about the “Percent ID/g Lower Intestine” value [3, 4] of the same substance?
A: The value was 0.50 Percent ID/g.

Q: And the “Percent ID/g Lungs” value [3, 4]?
A: Its value is 0.71 Percent ID/g.

Q: What about the “Percent ID/g Muscle” value [3, 4] of the same substance?
A: The value was 0.25 Percent ID/g.

Q: What about the “Percent ID/g Spleen” value [3, 4] of the same substance?
A: The value was 0.84 Percent ID/g.

Q: And the “Percent ID/g Stomach” value [3, 4]?
A: The value was 0.67 Percent ID/g.

Q: What about the “Percent ID/g Thymus” value [3, 4] of the same substance?
A: The value was 0.55 Percent ID/g.

Q: And the “Percent ID/g Thyroid” value [3, 4]?
A: The value was 0.65 Percent ID/g.

Q: And the “Percent ID/g Upper Intestine” value [3, 4]?
A: The value was 1.13 Percent ID/g.

Q: What about the “Percent ID/g Bladder” value [3, 5] of the same substance?
A: The value was 0.68 Percent ID/g.

Q: What about the “Percent ID/g Blood” value [3, 5] of the same substance?
A: The value was 0.36 Percent ID/g.

Q: And the “Percent ID/g Bone” value [3, 5]?
A: The value was 0.23 Percent ID/g.

Q: And the “Percent ID/g Brain” value [3, 5]?
A: Its value is 0.11 Percent ID/g.

Q: And the “Percent ID/g Heart” value [3, 5]?
A: The value was 0.34 Percent ID/g.

Q: What about the “Percent ID/g Kidneys” value [3, 5] of the same substance?
A: Its value is 1.15 Percent ID/g.

Q: What about the “Percent ID/g Liver” value [3, 5] of the same substance?
A: Its value is 3.63 Percent ID/g.

Q: And the “Percent ID/g Lower Intestine” value [3, 5]?
A: Its value is 0.40 Percent ID/g.

Q: And the “Percent ID/g Lungs” value [3, 5]?
A: The value was 0.39 Percent ID/g.

Q: And the “Percent ID/g Muscle” value [3, 5]?
A: The value was 0.14 Percent ID/g.

Q: And the “Percent ID/g Spleen” value [3, 5]?
A: Its value is 0.45 Percent ID/g.

Q: And the “Percent ID/g Stomach” value [3, 5]?
A: Its value is 0.56 Percent ID/g.

Q: And the “Percent ID/g Thymus” value [3, 5]?
A: Its value is 0.25 Percent ID/g.

Q: What about the “Percent ID/g Thyroid” value [3, 5] of the same substance?
A: Its value is 0.77 Percent ID/g.

Q: And the “Percent ID/g Upper Intestine” value [3, 5]?
A: The value was 0.98 Percent ID/g.

Q: And the “Percent ID/g Bladder” value [3, 6]?
A: The value was 2.84 Percent ID/g.

Q: And the “Percent ID/g Blood” value [3, 6]?
A: Its value is 0.28 Percent ID/g.

Q: And the “Percent ID/g Bone” value [3, 6]?
A: Its value is 0.11 Percent ID/g.

Q: What about the “Percent ID/g Brain” value [3, 6] of the same substance?
A: Its value is 0.02 Percent ID/g.

Q: And the “Percent ID/g Heart” value [3, 6]?
A: The value was 0.09 Percent ID/g.

Q: And the “Percent ID/g Kidneys” value [3, 6]?
A: The value was 0.45 Percent ID/g.

Q: What about the “Percent ID/g Liver” value [3, 6] of the same substance?
A: Its value is 2.45 Percent ID/g.

Q: And the “Percent ID/g Lower Intestine” value [3, 6]?
A: Its value is 0.36 Percent ID/g.

Q: And the “Percent ID/g Lungs” value [3, 6]?
A: The value was 0.16 Percent ID/g.

Q: And the “Percent ID/g Muscle” value [3, 6]?
A: The value was 0.05 Percent ID/g.

Q: And the “Percent ID/g Spleen” value [3, 6]?
A: The value was 0.23 Percent ID/g.

Q: And the “Percent ID/g Stomach” value [3, 6]?
A: Its value is 1.80 Percent ID/g.

Q: What about the “Percent ID/g Thymus” value [3, 6] of the same substance?
A: The value was 0.05 Percent ID/g.

Q: And the “Percent ID/g Thyroid” value [3, 6]?
A: The value was 0.15 Percent ID/g.

Q: And the “Percent ID/g Upper Intestine” value [3, 6]?
A: Its value is 4.60 Percent ID/g.
